Source: the CheMixHub ionic liquid set
± gives the uncertainty stated by the source.

Experiment: xn = mol fraction of the nth substance listed
Details: for electrical conductivity: frequency 0.0005 MHz

CCCCCCCCn1cc[n+](C)c1C.F[P-](F)(F)(F)(F)F + CCCCCCCC[n+]1ccn(C)c1.F[P-](F)(F)(F)(F)F
100 kPa, x2 = 0.5
Details	viscosity [mPa·s]
333.15 K	90.3 ± 7.1
343.15 K	60.9 ± 1.7
353.15 K	44.5 ± 1.5

CC[n+]1ccn(CCOC)c1.O=S(=O)([O-])C(F)(F)F + CCCO
viscosity [mPa·s], 101 kPa
Details	x1 = 0.0987	x1 = 0.1999	x1 = 0.2982	x1 = 0.3994	x1 = 0.499	x1 = 0.599	x1 = 0.698	x1 = 0.801	x1 = 0.899	x1 = 1
288.15 K	4.257 ± 0.098	6.11 ± 0.17	10 ± 0.32	14.17 ± 0.61	23.2 ± 1	31.9 ± 1.1	45.2 ± 1.4	63.3 ± 1.8	88.6 ± 2.7	121 ± 4.5
293.15 K	3.751 ± 0.084	4.78 ± 0.14	8.54 ± 0.29	12.17 ± 0.5	19.23 ± 0.83	26.22 ± 0.93	36.7 ± 1.1	50.5 ± 1.4	69.1 ± 1.9	92.5 ± 2.9
298.15 K	3.282 ± 0.073	4.18 ± 0.12	7.36 ± 0.25	10.61 ± 0.42	16.22 ± 0.67	21.94 ± 0.76	30.16 ± 0.92	41 ± 1.1	55.3 ± 1.4	72.5 ± 2
303.15 K	2.914 ± 0.065	3.72 ± 0.11	6.41 ± 0.22	9.35 ± 0.34	13.09 ± 0.55	18.61 ± 0.65	25.17 ± 0.75	33.69 ± 0.91	44.8 ± 1.2	57.9 ± 1.5
308.15 K	2.594 ± 0.059	3.59 ± 0.098	5.63 ± 0.19	8.33 ± 0.29	11.23 ± 0.46	15.98 ± 0.55	21.29 ± 0.62	28.1 ± 0.75	36.86 ± 0.95	47.3 ± 1.2
313.15 K	2.321 ± 0.053	3.205 ± 0.087	4.98 ± 0.17	7.49 ± 0.26	10.09 ± 0.39	13.81 ± 0.46	18.34 ± 0.53	23.8 ± 0.63	30.74 ± 0.79	39 ± 1
318.15 K	2.086 ± 0.048	3.097 ± 0.081	4.43 ± 0.15	6.8 ± 0.22	8.6 ± 0.32	12 ± 0.4	15.84 ± 0.45	20.29 ± 0.54	25.97 ± 0.67	32.59 ± 0.85

CCCCCCCC(=O)[O-].c1c[nH+]c[nH]1 + O
101.3 kPa
Details	viscosity [mPa·s]
293.15 K, x2 = 0.3042	53.53 ± 0.6
293.15 K, x2 = 0.4091	50.43 ± 0.41
293.15 K, x2 = 0.6017	39.83 ± 0.88
298.15 K, x2 = 0.5119	37.4 ± 0.86
298.15 K, x2 = 0.7995	18.69 ± 0.43
303.15 K, x2 = 0.3042	34.6 ± 0.81
303.15 K, x2 = 0.6643	24.26 ± 0.56
313.15 K, x2 = 0.1964	24.17 ± 0.57
313.15 K, x2 = 0.8154	10.93 ± 0.26
318.15 K, x2 = 0.0989	23.17 ± 0.54
318.15 K, x2 = 0.3042	19.22 ± 0.45
318.15 K, x2 = 0.6017	16.16 ± 0.38
318.15 K, x2 = 0.8154	9.92 ± 0.24
323.15 K, x2 = 0	25.33 ± 0.61
323.15 K, x2 = 0.0989	19.77 ± 0.46
323.15 K, x2 = 0.3042	16.85 ± 0.4
323.15 K, x2 = 0.8154	9.3 ± 0.23

NC=O + CCCC[n+]1ccn(C)c1.F[B-](F)(F)F
101 kPa
Details	viscosity [mPa·s]
293.15 K, x2 = 0	3.66 ± 0.11
293.15 K, x2 = 0.2758	10.51 ± 0.33
293.15 K, x2 = 0.3629	16.75 ± 0.53
293.15 K, x2 = 0.5095	31.8 ± 1
293.15 K, x2 = 0.569	39.6 ± 1.3
298.15 K, x2 = 0.2758	9.47 ± 0.3
298.15 K, x2 = 0.7588	56.7 ± 1.8
298.15 K, x2 = 0.8107	64.8 ± 2.1
303.15 K, x2 = 0.4499	17.48 ± 0.55
303.15 K, x2 = 0.8107	50.9 ± 1.6
303.15 K, x2 = 0.8626	57.3 ± 1.8
303.15 K, x2 = 0.9313	66.4 ± 2.2
308.15 K, x2 = 0.2758	7.5 ± 0.23
308.15 K, x2 = 0.4499	14.74 ± 0.47
308.15 K, x2 = 0.9313	51.2 ± 1.6
313.15 K, x2 = 0.2054	4.61 ± 0.14
313.15 K, x2 = 0.3629	8.75 ± 0.28
313.15 K, x2 = 0.4499	11.81 ± 0.37
318.15 K, x2 = 0.2758	5.08 ± 0.16
318.15 K, x2 = 0.569	14.1 ± 0.45
318.15 K, x2 = 0.6639	18.31 ± 0.58
318.15 K, x2 = 0.8626	29.35 ± 0.94

CCC[P+](c1ccccc1)(c1ccccc1)c1ccccc1.[Br-] + O=S=O + OCCO
100 kPa
Details	viscosity [mPa·s]
303.15 K, x2 = 0.01565, x3 = 0.9603	20.6 ± 0.9
313.15 K, x2 = 0.01166, x3 = 0.9642	17 ± 0.7
323.15 K, x2 = 0.009018, x3 = 0.9668	14.1 ± 0.6
333.15 K, x2 = 0.007838, x3 = 0.968	11.6 ± 0.5
343.15 K, x2 = 0.006951, x3 = 0.9688	10.5 ± 0.4

CCCCCCCCOS(=O)(=O)[O-].CC[n+]1ccn(C)c1 + O + O=S(=O)([O-])[O-].[Na+].[Na+]
101 kPa, x2 = 0.7732, x3 = 0.0003656
Details	electrical conductivity [S/m]	viscosity [mPa·s]
283.15 K	0.483 ± 0.029	–
285.15 K	0.523 ± 0.032	–
288.15 K	0.59 ± 0.036	–
291.15 K	0.655 ± 0.04	–
293.15 K	0.699 ± 0.042	–
295.65 K	–	86.6 ± 2
298.15 K	0.829 ± 0.05	75.4 ± 1.7
303.15 K	0.977 ± 0.059	58 ± 1.3
308.15 K	–	45.4 ± 1
313.15 K	1.35 ± 0.081	–
318.15 K	–	29.06 ± 0.64
323.15 K	1.68 ± 0.1	–
328.15 K	–	19.55 ± 0.43
333.15 K	2.11 ± 0.13	–
338.15 K	–	13.72 ± 0.3
343.15 K	2.63 ± 0.16	–
353.15 K	3.13 ± 0.19	–
358.15 K	3.41 ± 0.21	–
363.15 K	3.72 ± 0.22	–

CCCCCCCC(=O)[O-].c1c[nH+]c[nH]1 + CCCCCCCCO
101.3 kPa
Details	viscosity [mPa·s]
293.15 K, x2 = 0.4	39.42 ± 0.91
293.15 K, x2 = 0.6005	24 ± 0.56
298.15 K, x2 = 0.4	33.3 ± 0.77
298.15 K, x2 = 0.5007	25.9 ± 0.61
298.15 K, x2 = 0.6005	20.3 ± 0.48
298.15 K, x2 = 0.8997	9.1 ± 0.23
303.15 K, x2 = 0.6005	17.2 ± 0.41
308.15 K, x2 = 0.1011	40.69 ± 0.96
308.15 K, x2 = 0.6999	11.72 ± 0.29
313.15 K, x2 = 0.6005	12.3 ± 0.31
318.15 K, x2 = 0.1011	27.68 ± 0.65
318.15 K, x2 = 0.799	6.7 ± 0.18
318.15 K, x2 = 0.8997	5.38 ± 0.15
323.15 K, x2 = 0.1011	22.9 ± 0.55
323.15 K, x2 = 0.2991	17.1 ± 0.41
323.15 K, x2 = 0.8997	4.82 ± 0.14

CCCCC(=O)[O-].CC[NH+](CC)CCO + CCCC[n+]1ccn(C)c1.COP(=O)([O-])OC
101 kPa
Details	viscosity [mPa·s]
278.15 K, x1 = 0.6984	216.8 ± 5.2
283.15 K, x1 = 0.4973	226.8 ± 5.6
288.15 K, x1 = 0.1018	874 ± 35
293.15 K, x1 = 0.1018	594 ± 21
298.15 K, x1 = 0.1952	271.2 ± 7
298.15 K, x1 = 0.5989	76 ± 1.2
298.15 K, x1 = 0.7978	58.54 ± 0.93
303.15 K, x1 = 0.1952	199.9 ± 4.4
303.15 K, x1 = 0.3029	132 ± 2.5
303.15 K, x1 = 1	37.12 ± 0.63
308.15 K, x1 = 0.1952	150.4 ± 2.9
308.15 K, x1 = 0.5989	46.85 ± 0.72
313.15 K, x1 = 0.3029	79.5 ± 1.2
313.15 K, x1 = 0.4003	58.57 ± 0.87
313.15 K, x1 = 0.5989	37.62 ± 0.58
313.15 K, x1 = 0.8868	26.19 ± 0.43
318.15 K, x1 = 0.1952	90.1 ± 1.4
318.15 K, x1 = 0.4003	47.13 ± 0.71
318.15 K, x1 = 0.5989	30.62 ± 0.47
318.15 K, x1 = 0.6984	26.67 ± 0.42
323.15 K, x1 = 0.7978	19.5 ± 0.31
328.15 K, x1 = 0.4973	25.35 ± 0.39
328.15 K, x1 = 0.5989	21.04 ± 0.32
328.15 K, x1 = 0.6984	18.34 ± 0.29
333.15 K, x1 = 0.1018	62.36 ± 0.82
333.15 K, x1 = 0.3029	34.47 ± 0.49
333.15 K, x1 = 0.4003	26.54 ± 0.39
333.15 K, x1 = 0.8868	12.34 ± 0.2
333.15 K, x1 = 1	10.94 ± 0.19
338.15 K, x1 = 0.1952	38.69 ± 0.53
338.15 K, x1 = 0.4973	18.07 ± 0.28
338.15 K, x1 = 0.5989	15.08 ± 0.23
343.15 K, x1 = 0.4003	19.11 ± 0.28
343.15 K, x1 = 0.4973	15.48 ± 0.24
343.15 K, x1 = 0.6984	11.27 ± 0.18
348.15 K, x1 = 0.5989	11.19 ± 0.17
353.15 K, x1 = 0.5989	9.76 ± 0.15
358.15 K, x1 = 0.8868	5.91 ± 0.1
358.15 K, x1 = 1	5.15 ± 0.09
363.15 K, x1 = 0.1018	21.41 ± 0.28
363.15 K, x1 = 0.6984	6.56 ± 0.1
373.15 K, x1 = 0.4003	8.6 ± 0.13
373.15 K, x1 = 1	3.53 ± 0.06

CCCCCCCC(=O)[O-].c1c[nH+]c[nH]1 + CCO
101.3 kPa
Details	viscosity [mPa·s]
293.15 K, x2 = 0.1984	53.79 ± 0.64
293.15 K, x2 = 0.301	40.4 ± 0.9
293.15 K, x2 = 0.5999	14.5 ± 0.4
298.15 K, x2 = 0.8989	2.949 ± 0.087
303.15 K, x2 = 0.1043	45 ± 1
303.15 K, x2 = 0.5999	12 ± 0.29
303.15 K, x2 = 0.8989	2.686 ± 0.08
313.15 K, x2 = 0	36.92 ± 0.87
313.15 K, x2 = 0.301	21.5 ± 0.5
313.15 K, x2 = 0.5999	9.9 ± 0.25
313.15 K, x2 = 0.7006	6.9 ± 0.18
318.15 K, x2 = 0.5999	9 ± 0.23
318.15 K, x2 = 0.8989	2.125 ± 0.064

c1nnn[nH]1 + CCCC[P+](CCCC)(CCCC)CCCC.[Cl-] + [N]=O
303.15 K, 101.3 kPa
Details	viscosity [mPa·s]
x1 = 0.2439, x2 = 0.2439	3.1 ± 1.4
x1 = 0.2518, x2 = 0.2518	4 ± 1.3
x1 = 0.2597, x2 = 0.2597	4 ± 1.4
x1 = 0.2723, x2 = 0.2723	6 ± 1.9
x1 = 0.2867, x2 = 0.2867	9.2 ± 2.4
